Source: US8134015B2, “Compound inhibiting in vivo phosphorous transport and medicine containing the same” (Kyowa Hakko Kirin Co., Ltd., priority 2003, dated 2012)

molecular target: T1, rat NaPi-2b (Rattus norvegicus, UniProt Q9JJ09); assay: Sodium-dependent phosphate uptake of Xenopus oocytes which expressed NaPi-2b (32P); type: cell-based; conditions: Xenopus oocytes expressing rat NaPi-2b, 32P radioactive phosphorus; read-out: IC50 (phosphate uptake inhibitory activity)
T1 construct: expressed in transfected cells; host or cells: Xenopus oocytes injected with cRNA
T1 sequence (Q9JJ09 1-695): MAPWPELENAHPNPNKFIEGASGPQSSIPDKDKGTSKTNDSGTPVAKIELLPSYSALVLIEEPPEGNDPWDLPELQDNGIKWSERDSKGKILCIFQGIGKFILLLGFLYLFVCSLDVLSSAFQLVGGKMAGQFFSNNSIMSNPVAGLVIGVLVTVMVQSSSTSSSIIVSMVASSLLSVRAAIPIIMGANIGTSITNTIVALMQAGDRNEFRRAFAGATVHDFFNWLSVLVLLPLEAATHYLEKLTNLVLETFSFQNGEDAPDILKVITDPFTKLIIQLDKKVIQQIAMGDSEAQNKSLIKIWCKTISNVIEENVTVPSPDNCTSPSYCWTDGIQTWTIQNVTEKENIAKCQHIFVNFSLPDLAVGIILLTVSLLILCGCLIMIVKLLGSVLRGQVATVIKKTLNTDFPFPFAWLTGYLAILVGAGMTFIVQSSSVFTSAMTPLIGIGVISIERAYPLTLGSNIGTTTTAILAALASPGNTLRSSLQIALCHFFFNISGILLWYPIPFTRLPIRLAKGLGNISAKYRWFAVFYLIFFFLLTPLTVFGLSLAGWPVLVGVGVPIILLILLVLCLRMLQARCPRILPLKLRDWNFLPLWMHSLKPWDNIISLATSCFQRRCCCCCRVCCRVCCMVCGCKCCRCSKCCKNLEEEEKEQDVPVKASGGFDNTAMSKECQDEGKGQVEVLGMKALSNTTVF
In short: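 Inhibition at 300 μM and 100 μM was read off one inhibition curve of 32P phosphate uptake. Uptake was measured in Xenopus oocytes cultured 2 days after injection of cRNA for cloned rat NaPi-2b.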

Row | SMILES | IC50 [µM]
1 | COc1ccc(C(=O)Nc2ccccc2C(=O)N/N=C/c2cccc(F)c2)cc1OC [Compound 15, N-[2-(3-Fluoro-benzylidene-hydrazinocarbonyl)-phenyl]-3,4-dimethoxy-benzamide] | 1.41
2 | CCN(CCO)Cc1ccc(C(=O)Nc2ccc(Cl)cc2C(=O)N/N=C/c2cccc(C)c2)cc1 [Compound 434, N-[4-Chloro-2-(3-methyl-benzylidene-hydrazinocarbonyl)-phenyl]-4-{[ethyl-(2-hydroxy-ethyl)-amino]-methyl}-benzamide] | 7.78
3 | Cc1ccc(/C=N/NC(=O)c2cc(Cl)ccc2NC(=O)c2cccc(CSCc3ccco3)c2)cc1C [Compound 683, N-[4-Chloro-2-(3,4-dimethyl-benzylidene-hydrazinocarbonyl)-phenyl]-3-(furan-2-ylmethylsulfanylmethyl)-benzamide] | < 3
4 | COc1cc(OC)cc(C(=O)Nc2ccccc2C(=O)N/N=C/c2ccc(Cl)c(C(F)(F)F)c2)c1 [Compound 89, N-[2-(4-Chloro-3-trifluoromethyl-benzylidene-hydrazinocarbonyl)-phenyl]-3,5-dimethoxy-benzamide] | 1.11
5 | COc1ccc(/C=N/NC(=O)c2cc(Cl)ccc2NC(=O)c2cccc(CSc3nnnn3CCN(C)C)c2)cc1 [Compound 469, N-[4-Chloro-2-(4-methoxy-benzylidene-hydrazinocarbonyl)-phenyl]-3-[1-(2-dimethylamino-ethyl)-1H-tetrazol-5-ylsulfanylmethyl]-benzamide] | 33.2
6 | Cc1csc(NC(=O)c2cccc(CN3CCN(CCO)CC3)c2)c1C(=O)N/N=C/c1ccc(F)cc1 [Compound 577, N-[3-(4-Fluoro-benzylidene-hydrazinocarbonyl)-4-methyl-thiophen-2-yl]-3-[4-(2-hydroxy-ethyl)-piperazin-1-ylmethyl]-benzamide] | < 3
7 | Cc1ccc(/C=N/NC(=O)c2c(C)csc2NC(=O)c2cccc(CN3CCC(CO)CC3)c2)cc1C [Compound 599, N-[3-(3,4-Dimethyl-benzylidene-hydrazinocarbonyl)-4-methyl-thiophen-2-yl]-3-(4-hydroxymethyl-piperidin-1-ylmethyl)-benzamide] | < 3
8 | Cc1ccc(/C=N/NC(=O)c2cc3ccccc3cc2NC(=O)c2cccc(CN(CC(C)O)CC(C)O)c2)cc1 (stereo not shown) [Compound 960, 3-{[Bis-(2-hydroxy-propyl)-amino]-methyl}-N-[3-(4-methyl-benzylidene-hydrazinocarbonyl)-naphthalen-2-yl]-benzamide] | 1.12
9 | O=C(Nc1ccc(Cl)cc1C(=O)N/N=C/c1ccc(Cl)c(C(F)(F)F)c1)c1cnc2ccccc2n1 [Compound 1006, Quinoxaline-2-carboxylic acid[4-chloro-2-(4-chloro-3-trifluoromethyl-benzylidene-hydrazinocarbonyl)-phenyl]-amide] | 6.31
10 | CCN(CC)CCNCc1ccc(C(=O)Nc2ccc(Br)cc2C(=O)N/N=C/c2ccc(Cl)c(C(F)(F)F)c2)cc1 [Compound 297, N-[4-Bromo-2-(4-chloro-3-trifluoromethyl-benzylidene-hydrazinocarbonyl)-phenyl]-4-[(2-diethylamino-ethylamino)-methyl]-benzamide] | 0.96
11 | O=c1c2c3c(sc2nc(-c2cccc(CSc4nc[nH]n4)c2)n1/N=C/c1ccc(Cl)c(C(F)(F)F)c1)CCCC3 [Compound 650, 3-[(4-Chloro-3-trifluoromethyl-benzylidene)-amino]-2-[3-(1H-[1,2,4]triazol-3-ylsulfanylmethyl)-phenyl]-5,6,7,8-tetrahydro-3H-benzo[4,5]thieno[2,3-d]pyrimidin-4-one] | 0.95
12 | COc1ccc(C(=O)Nc2scc(C)c2C(=O)N/N=C/c2cccc(F)c2)cc1OC [Compound 517, N-[3-(3-Fluoro-benzylidene-hydrazinocarbonyl)-4-methyl-thiophen-2-yl]-3,4-dimethoxy-benzamide] | 1.71
13 | COc1ccccc1/C=C/C=N/NC(=O)c1cc(Br)ccc1NC(=O)c1cccnc1 [Compound 352, N-{4-Bromo-2-[3-(2-methoxy-phenyl)-allylidene-hydrazinocarbonyl]-phenyl}-nicotinamide] | 13
14 | O=C(Nc1ccc(OCCCCF)cc1C(=O)N/N=C/c1cccc(F)c1)c1cccc(CSCCO)c1 [Compound 1051, N-[2-(3-Fluoro-benzylidene-hydrazinocarbonyl)-4-(4-fluoro-butoxy)-phenyl]-3-(2-hydroxy-ethylsulfanylmethyl)-benzamide] | 1.16
15 | O=C(Nc1ccc(Br)cc1C(=O)N/N=C/c1ccc(Cl)c(C(F)(F)F)c1)c1cccnc1 [Compound 177, N-[4-Bromo-2-(4-chloro-3-trifluoromethyl-benzylidene-hydrazinocarbonyl)-phenyl]-nicotinamide] | 26
16 | COc1ccc(/C=N/NC(=O)c2cc(N3CCN(C)CC3)ccc2NC(=O)c2cccc(CSCCO)c2)cc1 [Compound 1073, 3-(2-Hydroxy-ethylsulfanylmethyl)-N-[2-(4-methoxy-benzylidene-hydrazinocarbonyl)-4-(4-methyl-piperazin-1-yl)-phenyl]-benzamide] | 20.4
17 | O=C(Nc1ccc(Cl)cc1C(=O)N/N=C/c1cccc(F)c1)c1cccc(CSCC(O)CO)c1 (stereo not shown) [Compound 1007, N-[4-Chloro-2-(3-fluoro-benzylidene-hydrazinocarbonyl)-phenyl]-3-(2,3-dihydroxy-propylsulfanylmethyl)-benzamide] | 0.4
18 | O=C(Nc1ccc(Br)cc1C(=O)N/N=C/c1cccc(F)c1)c1ccc(CN2CCC(N3CCCCC3)CC2)cc1 [Compound 312, 4-[1,4′]Bipiperidinyl-1′-ylmethyl-N-[4-bromo-2-(3-fluoro-benzylidene-hydrazinocarbonyl)-phenyl]-benzamide] | 3.31
19 | COc1ccc(C(=O)Nc2ccc(I)cc2C(=O)N/N=C/c2cccc(C)c2)cc1OC [Compound 206, N-[4-Iodo-2-(3-methyl-benzylidene-hydrazinocarbonyl)-phenyl]-3,4-dimethoxy-benzamide] | < 3
20 | CCN(CC)CCN(C)Cc1cccc(C(=O)Nc2ccc(Cl)cc2C(=O)N/N=C/c2ccc(F)cc2)c1 [Compound 380, N-[4-Chloro-2-(4-fluoro-benzylidene-hydrazinocarbonyl)-phenyl]-3-{[(2-diethylamino-ethyl)-methyl-amino]-methyl}-benzamide] | 0.35
21 | CCN(CC)CCSCc1cccc(C(=O)Nc2ccc(N3CCCCC3)cc2C(=O)N/N=C/c2ccc(F)cc2)c1 [Compound 877, 3-(2-Diethylamino-ethylsulfanylmethyl)-N-[2-(4-fluoro-benzylidene-hydrazinocarbonyl)-4-piperidin-1-yl-phenyl]-benzamide] | < 0.3
22 | CCN(CC)CCN(C)Cc1ccc(C(=O)Nc2ccc(Br)cc2C(=O)N/N=C/c2ccc(Cl)c(C(F)(F)F)c2)cc1 [Compound 289, N-[4-Bromo-2-(4-chloro-3-trifluoromethyl-benzylidene-hydrazinocarbonyl)-phenyl]-4-{[(2-diethylamino-ethyl)-methyl-amino]-methyl}-benzamide] | 2.89

same assay, conditions: phosphate uptake, oocytes expressing rat NaPi-2b; 300 μM, determined from inhibition curve

Row | SMILES | inhibition at 300 µM [%]
23 | Cc1ccc(/C=N/NC(=O)c2cc(OCC(O)CN3CCCCC3)ccc2NC(=O)c2cccc(CN(CC(C)O)CC(C)O)c2)cc1C (stereo not shown) [Compound 949, 3-{[Bis-(2-hydroxy-propyl)-amino]-methyl}-N-[2-(3,4-dimethyl-benzylidene-hydrazinocarbonyl)-4-(2-hydroxy-3-piperidin-1-yl-propoxy)-phenyl]-benzamide] | 72.6
24 | CC(O)CN(Cc1cccc(C(=O)Nc2ccsc2C(=O)N/N=C/c2cccc(F)c2)c1)CC(C)O (stereo not shown) [Compound 992, 3-{[Bis-(2-hydroxy-propyl)-amino]-methyl}-N-[2-(3-fluoro-benzylidene-hydrazinocarbonyl)-thiophen-3-yl]-benzamide] | 31.9
25 | Cc1csc(C(=O)N/N=C/c2cccc(F)c2)c1NC(=O)c1cccc(CN2CCC(O)CC2)c1 [Compound 542, N-[2-(3-Fluoro-benzylidene-hydrazinocarbonyl)-4-methyl-thiophen-3-yl]-3-(4-hydroxy-piperidin-1-ylmethyl)-benzamide] | 41.1
26 | CN(CCCNCc1ccc(C(=O)Nc2ccc(Br)cc2C(=O)N/N=C/c2ccc(F)cc2)cc1)c1ccccc1 [Compound 759, N-[4-Bromo-2-(4-fluoro-benzylidene-hydrazinocarbonyl)-phenyl]-4-{[3-(methyl-phenyl-amino)-propylamino]-methyl}-benzamide] | 63.9
27 | COc1ccc(/C=N/NC(=O)c2scc(C)c2NC(=O)c2cccc(CN3CCC(N4CCCCC4)CC3)c2)cc1 [Compound 531, 3-[1,4′]Bipiperidinyl-1′-ylmethyl-N-[2-(4-methoxy-benzylidene-hydrazinocarbonyl)-4-methyl-thiophen-3-yl]-benzamide] | 35.7
28 | CCN(CC)CCNCc1cccc(C(=O)Nc2c(C)csc2C(=O)N/N=C/c2ccc(C)c(C)c2)c1 [Compound 536, 3-[(2-Diethylamino-ethylamino)-methyl]-N-[2-(3,4-dimethyl-benzylidene-hydrazinocarbonyl)-4-methyl-thiophen-3-yl]-benzamide] | 88.2
